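Protocol summary: plate cells (96-well), add compound at 5 concentrations, incubate 48 h, interpolate endpoints linearly. TGI marks complete inhibition of growth.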
Columns and labels:
Test in all cases: NCI tumour cell line growth inhibition, 48 h
MALME-3M melanoma = tested on: MALME-3M melanoma
DMS 114 small cell lung = tested on: DMS 114 small cell lung
SW-620 colon = tested on: SW-620 colon
CCRF-CEM leukemia = tested on: CCRF-CEM leukemia
M14 melanoma = tested on: M14 melanoma
SF-539 CNS = tested on: SF-539 CNS
SK-MEL-5 melanoma = tested on: SK-MEL-5 melanoma
DMS 273 small cell lung = tested on: DMS 273 small cell lung
SNB-75 CNS = tested on: SNB-75 CNS
HCT-15 colon = tested on: HCT-15 colon
SR leukemia = tested on: SR leukemia
HT29 colon = tested on: HT29 colon
A549 NSCLC = tested on: A549 NSCLC
SK-MEL-28 melanoma = tested on: SK-MEL-28 melanoma
HCT-116 colon = tested on: HCT-116 colon
ACHN renal = tested on: ACHN renal
U251 CNS = tested on: U251 CNS
LXFL 529 NSCLC = tested on: LXFL 529 NSCLC
A498 renal = tested on: A498 renal
HCC-2998 colon = tested on: HCC-2998 colon
K-562 leukemia = tested on: K-562 leukemia
HL-60(TB) leukemia = tested on: HL-60(TB) leukemia
OVCAR-3 ovarian = tested on: OVCAR-3 ovarian
SNB-78 CNS = tested on: SNB-78 CNS
UACC-62 melanoma = tested on: UACC-62 melanoma
HOP-92 NSCLC = tested on: HOP-92 NSCLC
HOP-62 NSCLC = tested on: HOP-62 NSCLC
NCI-H23 lung = tested on: NCI-H23 lung
NCI-H460 lung = tested on: NCI-H460 lung
IGROV1 ovarian = tested on: IGROV1 ovarian
KM20L2 colon = tested on: KM20L2 colon
UACC-257 melanoma = tested on: UACC-257 melanoma
SF-268 CNS = tested on: SF-268 CNS
XF 498 CNS = tested on: XF 498 CNS
OVCAR-4 ovarian = tested on: OVCAR-4 ovarian
UO-31 renal = tested on: UO-31 renal
SF-295 CNS = tested on: SF-295 CNS
SK-MEL-2 melanoma = tested on: SK-MEL-2 melanoma
KM12 colon = tested on: KM12 colon
M19-MEL melanoma = tested on: M19-MEL melanoma
OVCAR-8 ovarian = tested on: OVCAR-8 ovarian
HOP-18 NSCLC = tested on: HOP-18 NSCLC
RPMI-8226 leukemia = tested on: RPMI-8226 leukemia
COLO 205 colon = tested on: COLO 205 colon
MOLT-4 leukemia = tested on: MOLT-4 leukemia
SN12C renal = tested on: SN12C renal
RXF 393 renal = tested on: RXF 393 renal
CAKI-1 renal = tested on: CAKI-1 renal
OVCAR-5 ovarian = tested on: OVCAR-5 ovarian
DLD-1 colon = tested on: DLD-1 colon
NCI-H226 lung = tested on: NCI-H226 lung
EKVX NSCLC = tested on: EKVX NSCLC
786-0 renal = tested on: 786-0 renal
LOX IMVI melanoma = tested on: LOX IMVI melanoma
TK-10 renal = tested on: TK-10 renal
SNB-19 CNS = tested on: SNB-19 CNS
SK-OV-3 ovarian = tested on: SK-OV-3 ovarian
RXF-631 renal = tested on: RXF-631 renal
NCI-H522 lung = tested on: NCI-H522 lung

**Q.** How did the TGI (MALME-3M melanoma) turn out when `C/C(=N\NC(=S)Nc1ccc(C(=O)O)cc1)c1ccccn1` was run?
**A.** 35.1 µM

**Q.** And the TGI (DMS 114 small cell lung)?
**A.** > 100 µM

**Q.** What about the TGI (SW-620 colon) of the same compound?
**A.** 39.1 µM

**Q.** And the TGI (CCRF-CEM leukemia)?
**A.** > 100 µM

**Q.** And the TGI (M14 melanoma)?
**A.** 28.7 µM

**Q.** And the TGI (SF-539 CNS)?
**A.** 40.3 µM

**Q.** And the TGI (SK-MEL-5 melanoma)?
**A.** 32.8 µM

**Q.** What about the TGI (DMS 273 small cell lung) of the same compound?
**A.** 51.8 µM

**Q.** What about the TGI (SNB-75 CNS) of the same compound?
**A.** 40 µM

**Q.** And the TGI (HCT-15 colon)?
**A.** > 100 µM

**Q.** And the TGI (SR leukemia)?
**A.** 56.3 µM

**Q.** And the TGI (HT29 colon)?
**A.** > 100 µM

**Q.** What about the TGI (A549 NSCLC) of the same compound?
**A.** > 100 µM

**Q.** What about the TGI (SK-MEL-28 melanoma) of the same compound?
**A.** > 100 µM

**Q.** And the TGI (HCT-116 colon)?
**A.** 51.4 µM

**Q.** And the TGI (ACHN renal)?
**A.** 30.4 µM

**Q.** What about the TGI (U251 CNS) of the same compound?
**A.** 58.3 µM

**Q.** What about the TGI (LXFL 529 NSCLC) of the same compound?
**A.** > 100 µM

**Q.** And the TGI (A498 renal)?
**A.** 50.7 µM

**Q.** And the TGI (HCC-2998 colon)?
**A.** 32.7 µM

**Q.** And the TGI (K-562 leukemia)?
**A.** > 100 µM

**Q.** What about the TGI (HL-60(TB) leukemia) of the same compound?
**A.** 52.5 µM

**Q.** What about the TGI (OVCAR-3 ovarian) of the same compound?
**A.** 47.8 µM

**Q.** What about the TGI (SNB-78 CNS) of the same compound?
**A.** > 100 µM

**Q.** What about the TGI (UACC-62 melanoma) of the same compound?
**A.** 21.9 µM

**Q.** And the TGI (HOP-92 NSCLC)?
**A.** > 100 µM

**Q.** What about the TGI (HOP-62 NSCLC) of the same compound?
**A.** > 100 µM

**Q.** What about the TGI (NCI-H23 lung) of the same compound?
**A.** 98.6 µM

**Q.** And the TGI (NCI-H460 lung)?
**A.** 50.2 µM

**Q.** And the TGI (IGROV1 ovarian)?
**A.** 85.8 µM

**Q.** And the TGI (KM20L2 colon)?
**A.** 78.9 µM

**Q.** What about the TGI (UACC-257 melanoma) of the same compound?
**A.** 62.1 µM

**Q.** And the TGI (SF-268 CNS)?
**A.** > 100 µM

**Q.** What about the TGI (XF 498 CNS) of the same compound?
**A.** 63.7 µM

**Q.** And the TGI (OVCAR-4 ovarian)?
**A.** 29.5 µM

**Q.** What about the TGI (UO-31 renal) of the same compound?
**A.** 39.8 µM

**Q.** And the TGI (SF-295 CNS)?
**A.** > 100 µM

**Q.** What about the TGI (SK-MEL-2 melanoma) of the same compound?
**A.** 35.4 µM

**Q.** What about the TGI (KM12 colon) of the same compound?
**A.** 68.9 µM

**Q.** And the TGI (M19-MEL melanoma)?
**A.** 49.7 µM

**Q.** And the TGI (OVCAR-8 ovarian)?
**A.** 45.5 µM

**Q.** What about the TGI (HOP-18 NSCLC) of the same compound?
**A.** 97.5 µM

**Q.** What about the TGI (RPMI-8226 leukemia) of the same compound?
**A.** 76.6 µM

**Q.** What about the TGI (COLO 205 colon) of the same compound?
**A.** 34.3 µM

**Q.** And the TGI (MOLT-4 leukemia)?
**A.** > 100 µM

**Q.** What about the TGI (SN12C renal) of the same compound?
**A.** 35.8 µM

**Q.** And the TGI (RXF 393 renal)?
**A.** 74.4 µM

**Q.** What about the TGI (CAKI-1 renal) of the same compound?
**A.** 80.5 µM

**Q.** And the TGI (OVCAR-5 ovarian)?
**A.** 60.7 µM

**Q.** What about the TGI (DLD-1 colon) of the same compound?
**A.** > 100 µM

**Q.** What about the TGI (NCI-H226 lung) of the same compound?
**A.** 34.2 µM

**Q.** And the TGI (EKVX NSCLC)?
**A.** > 100 µM

**Q.** What about the TGI (786-0 renal) of the same compound?
**A.** 43.3 µM

**Q.** And the TGI (LOX IMVI melanoma)?
**A.** > 100 µM

**Q.** And the TGI (TK-10 renal)?
**A.** > 100 µM

**Q.** For `CC(C)=CC(=O)CC(=O)C(=O)Nc1ccc(C)c(C)c1`, which TGI (MALME-3M melanoma) is on record?
**A.** > 100 µM

**Q.** And the TGI (SW-620 colon)?
**A.** > 100 µM

**Q.** And the TGI (CCRF-CEM leukemia)?
**A.** > 100 µM

**Q.** What about the TGI (M14 melanoma) of the same compound?
**A.** > 100 µM

**Q.** What about the TGI (SF-539 CNS) of the same compound?
**A.** > 100 µM

**Q.** What about the TGI (DMS 273 small cell lung) of the same compound?
**A.** > 100 µM

**Q.** What about the TGI (SNB-75 CNS) of the same compound?
**A.** > 100 µM

**Q.** What about the TGI (HCT-15 colon) of the same compound?
**A.** > 100 µM

**Q.** What about the TGI (SR leukemia) of the same compound?
**A.** > 100 µM

**Q.** What about the TGI (HT29 colon) of the same compound?
**A.** > 100 µM

**Q.** What about the TGI (A549 NSCLC) of the same compound?
**A.** > 100 µM

**Q.** And the TGI (SNB-19 CNS)?
**A.** > 100 µM

**Q.** And the TGI (SK-MEL-28 melanoma)?
**A.** > 100 µM

**Q.** What about the TGI (HCT-116 colon) of the same compound?
**A.** > 100 µM

**Q.** What about the TGI (ACHN renal) of the same compound?
**A.** > 100 µM

**Q.** What about the TGI (U251 CNS) of the same compound?
**A.** > 100 µM

**Q.** And the TGI (LXFL 529 NSCLC)?
**A.** > 100 µM

**Q.** What about the TGI (SK-OV-3 ovarian) of the same compound?
**A.** > 100 µM

**Q.** What about the TGI (K-562 leukemia) of the same compound?
**A.** > 100 µM

**Q.** What about the TGI (HL-60(TB) leukemia) of the same compound?
**A.** > 100 µM

**Q.** And the TGI (RXF-631 renal)?
**A.** > 100 µM

**Q.** What about the TGI (OVCAR-3 ovarian) of the same compound?
**A.** > 100 µM

**Q.** What about the TGI (SNB-78 CNS) of the same compound?
**A.** > 100 µM

**Q.** And the TGI (UACC-62 melanoma)?
**A.** > 100 µM

**Q.** And the TGI (HOP-92 NSCLC)?
**A.** > 100 µM

**Q.** What about the TGI (NCI-H23 lung) of the same compound?
**A.** > 100 µM

**Q.** And the TGI (IGROV1 ovarian)?
**A.** > 100 µM

**Q.** And the TGI (KM20L2 colon)?
**A.** > 100 µM

**Q.** And the TGI (UACC-257 melanoma)?
**A.** > 100 µM

**Q.** And the TGI (SF-268 CNS)?
**A.** > 100 µM

**Q.** What about the TGI (XF 498 CNS) of the same compound?
**A.** > 100 µM

**Q.** What about the TGI (UO-31 renal) of the same compound?
**A.** > 100 µM

**Q.** What about the TGI (SF-295 CNS) of the same compound?
**A.** > 100 µM

**Q.** And the TGI (SK-MEL-2 melanoma)?
**A.** > 100 µM

**Q.** What about the TGI (KM12 colon) of the same compound?
**A.** > 100 µM

**Q.** And the TGI (M19-MEL melanoma)?
**A.** > 100 µM

**Q.** And the TGI (RPMI-8226 leukemia)?
**A.** > 100 µM

**Q.** And the TGI (MOLT-4 leukemia)?
**A.** > 100 µM

**Q.** And the TGI (SN12C renal)?
**A.** > 100 µM

**Q.** And the TGI (CAKI-1 renal)?
**A.** > 100 µM

**Q.** What about the TGI (NCI-H522 lung) of the same compound?
**A.** > 100 µM

**Q.** What about the TGI (DLD-1 colon) of the same compound?
**A.** > 100 µM

**Q.** What about the TGI (NCI-H226 lung) of the same compound?
**A.** > 100 µM

**Q.** What about the TGI (EKVX NSCLC) of the same compound?
**A.** > 100 µM

**Q.** What about the TGI (786-0 renal) of the same compound?
**A.** > 100 µM

**Q.** What about the TGI (LOX IMVI melanoma) of the same compound?
**A.** > 100 µM

**Q.** What about the TGI (TK-10 renal) of the same compound?
**A.** > 100 µM

From PubChem BioAssay (NCI)
